From PubChem BioAssay AID1963842 (Molecular Pharmacology Branch, DTP, NCI, 2024)

Tested on: 677734-321-R-J1-PDC complex spheroid viability
Test: Anticancer human tumor 677734-321-R-J1-PDC patient-derived soft tissue sarcoma cell line growth inhibition [POLQ]
Conditions: for IC50: curve of first compound; for viability, T/C: stronger effect = lower value
Method in brief: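 Patient-derived tumour cells were co-cultured with HUVEC and mesenchymal stem cells as multicellular spheroids at 37 °C. They were treated with POLQ inhibitors (novobiocin, ART-558, RP6685) alone or combined with other agents. Top concentrations were at or near clinical Cmax (otherwise 10 microM; SN-38 at 1 microM), decreasing in half-log steps.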
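Further: spheroids exposed to compounds for one week.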
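Wherever viability, T/C is given: 100% = vehicle DMSO treated spheroids.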

CNCc1ccc(-c2[nH]c3cc(F)cc4c3c2CCNC4=O)cc1 + Cc1cccc(N(C)C(=O)C2C(O)CCN2c2nc(C)cc(C(F)(F)F)c2C#N)c1
IC50 (second compound 0.0316 µM): > 10 µM | IC50 (second compound 0.1 µM): > 10 µM | IC50 (second compound 0.316 µM): > 10 µM | IC50 (second compound 1 µM): > 10 µM | IC50 (second compound 3.16 µM): > 10 µM | IC50 (second compound 10 µM): > 10 µM | viability, T/C (second compound 0.0316 µM, first compound 0.0316 µM): 107% | viability, T/C (second compound 0.0316 µM, first compound 0.1 µM): 104% | viability, T/C (second compound 0.0316 µM, first compound 0.316 µM): 107% | viability, T/C (second compound 0.0316 µM, first compound 1 µM): 106% | viability, T/C (second compound 0.0316 µM, first compound 3.16 µM): 107% | viability, T/C (second compound 0.0316 µM, first compound 10 µM): 107% | viability, T/C (second compound 0.1 µM, first compound 0.0316 µM): 108% | viability, T/C (second compound 0.1 µM, first compound 0.1 µM): 110% | viability, T/C (second compound 0.1 µM, first compound 0.316 µM): 103% | viability, T/C (second compound 0.1 µM, first compound 1 µM): 101% | viability, T/C (second compound 0.1 µM, first compound 3.16 µM): 106% | viability, T/C (second compound 0.1 µM, first compound 10 µM): 105% | viability, T/C (second compound 0.316 µM, first compound 0.0316 µM): 120% | viability, T/C (second compound 0.316 µM, first compound 0.1 µM): 104% | viability, T/C (second compound 0.316 µM, first compound 0.316 µM): 104% | viability, T/C (second compound 0.316 µM, first compound 1 µM): 105% | viability, T/C (second compound 0.316 µM, first compound 3.16 µM): 113% | viability, T/C (second compound 0.316 µM, first compound 10 µM): 98.9% | viability, T/C (second compound 1 µM, first compound 0.0316 µM): 108% | viability, T/C (second compound 1 µM, first compound 0.1 µM): 94.9% | viability, T/C (second compound 1 µM, first compound 0.316 µM): 104% | viability, T/C (second compound 1 µM, first compound 1 µM): 114% | viability, T/C (second compound 1 µM, first compound 3.16 µM): 106% | viability, T/C (second compound 1 µM, first compound 10 µM): 107% | viability, T/C (second compound 3.16 µM, first compound 0.0316 µM): 110% | viability, T/C (second compound 3.16 µM, first compound 0.1 µM): 96.5% | viability, T/C (second compound 3.16 µM, first compound 0.316 µM): 102% | viability, T/C (second compound 3.16 µM, first compound 1 µM): 108% | viability, T/C (second compound 3.16 µM, first compound 3.16 µM): 107% | viability, T/C (second compound 3.16 µM, first compound 10 µM): 99.3% | viability, T/C (second compound 10 µM, first compound 0.0316 µM): 109% | viability, T/C (second compound 10 µM, first compound 0.1 µM): 95.2% | viability, T/C (second compound 10 µM, first compound 0.316 µM): 104% | viability, T/C (second compound 10 µM, first compound 1 µM): 101% | viability, T/C (second compound 10 µM, first compound 3.16 µM): 91.4% | viability, T/C (second compound 10 µM, first compound 10 µM): 98.6%
